Data published in ChEMBL document CHEMBL2021881, “Ianthellamide A, a selective kynurenine-3-hydroxylase inhibitor from the Australian marine sponge Ianthella quadrangulata” (Bioorg Med Chem Lett, 2012).
Active and inactive are the calls of the source. The rule behind the calls is not given here.

Columns and labels:
Rattus norvegicus [1] = experiment: Inhibition of kynurenine-3-hydroxylase in rat brain assessed as increase in Increase in extracellular kynurenic acid level at 200 mg/kg, ip coadministered with 100 mg/kg kynurenine by in-vivo microdialysis measured at 135 mins post dose relative to untreated control; type: functional, organism-based
Rattus norvegicus [2] = experiment: Effect on extracellular kynurenic acid in rat brain dosed at 200 mg/kg, ip by in-vivo microdialysis measured for 6 hrs post dose (reference value: 1.55 +/- 0.05 pg/ml); type: functional; conditions: route intraperitoneal
Rattus norvegicus [3] = experiment: Inhibition of kynurenine-3-hydroxylase in rat brain assessed as increase in Increase in extracellular kynurenic acid level at 200 mg/kg, ip coadministered with 100 mg/kg kynurenine by in-vivo microdialysis measured at 5 hrs post dose relative to untreated control; type: functional, organism-based
[4] = target: Kynurenine 3-monooxygenase (Rattus norvegicus, UniProt O88867); experiment: (§1) Inhibition of kynurenine-3-hydroxylase in rat liver homogenates assessed as effect on production of 3-hydroxy kynurenine incubated for 1 hr by HPLC; type: tissue-based
Chain of Kynurenine 3-monooxygenase (O88867 whole entry): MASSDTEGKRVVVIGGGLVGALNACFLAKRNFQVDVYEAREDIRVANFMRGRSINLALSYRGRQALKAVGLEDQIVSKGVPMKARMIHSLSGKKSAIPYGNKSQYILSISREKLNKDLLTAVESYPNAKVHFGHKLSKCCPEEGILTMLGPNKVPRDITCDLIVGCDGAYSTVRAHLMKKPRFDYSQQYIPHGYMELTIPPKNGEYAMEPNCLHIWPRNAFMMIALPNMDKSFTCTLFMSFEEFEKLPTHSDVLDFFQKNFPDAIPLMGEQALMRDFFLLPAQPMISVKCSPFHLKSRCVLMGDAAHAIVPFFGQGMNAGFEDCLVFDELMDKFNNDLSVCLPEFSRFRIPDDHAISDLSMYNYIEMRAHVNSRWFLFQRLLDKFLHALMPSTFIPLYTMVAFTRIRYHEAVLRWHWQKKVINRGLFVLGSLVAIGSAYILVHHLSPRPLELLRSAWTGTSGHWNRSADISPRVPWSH

[5] = target: Kynurenine 3-monooxygenase (Rattus norvegicus) (UniProt O88867); experiment: as §1; type: tissue-based
Chain of Kynurenine 3-monooxygenase (Rattus norvegicus) (O88867 whole entry, looked up): as the sequence (O88867 whole entry) above

[6] = target: T1, Kynureninase (Rattus norvegicus) (UniProt P70712); experiment: Inhibition of kynureninase in rat liver homogenates assessed as effect on production of anthranilic acid at >125 uM incubated for 30 mins by HPLC; type: tissue-based
T1 sequence (whole entry): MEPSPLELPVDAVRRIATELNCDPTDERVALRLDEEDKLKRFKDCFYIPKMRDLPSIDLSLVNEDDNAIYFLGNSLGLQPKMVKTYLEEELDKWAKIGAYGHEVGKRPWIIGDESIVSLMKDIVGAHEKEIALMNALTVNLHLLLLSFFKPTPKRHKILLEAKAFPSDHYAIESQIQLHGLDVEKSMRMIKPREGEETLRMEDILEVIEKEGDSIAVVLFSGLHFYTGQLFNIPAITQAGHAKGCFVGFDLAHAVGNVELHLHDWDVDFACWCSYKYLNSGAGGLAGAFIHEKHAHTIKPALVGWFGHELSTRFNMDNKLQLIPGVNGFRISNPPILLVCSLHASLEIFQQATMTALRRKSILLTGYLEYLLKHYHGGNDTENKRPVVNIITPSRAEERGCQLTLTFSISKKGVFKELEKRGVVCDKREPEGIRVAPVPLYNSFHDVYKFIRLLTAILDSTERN

[7] = target: T1, Kynureninase (Rattus norvegicus); experiment: Inhibition of kynureninase in rat liver homogenates assessed as effect on production of anthranilic acid up to 125 uM incubated for 30 mins by HPLC; type: tissue-based
Rattus norvegicus [8] = experiment: Inhibition of kynurenine-3-hydroxylase in rat brain assessed as increase in Increase in extracellular kynurenic acid level at 200 mg/kg, ip coadministered with 100 mg/kg kynurenine by in-vivo microdialysis measured within 25 mins post dose relative to untreated control; type: functional, organism-based
Rattus norvegicus [9] = experiment: Inhibition of kynurenine-3-hydroxylase in rat brain assessed as increase in Increase in extracellular kynurenic acid level at 200 mg/kg, ip coadministered with 100 mg/kg kynurenine by in-vivo microdialysis measured up to 335 mins post dose relative to untreated control; type: functional
[10] = target: Kynurenine 3-monooxygenase (Rattus norvegicus) (UniProt O88867); experiment: Inhibition of kynurenine-3-hydroxylase in rat liver homogenates assessed as effect on production of 3-hydroxy kynurenine up to 125 uM incubated for 1 hr by HPLC; type: tissue-based

- IC50 [4]: 1500 nM
- inhibition [5]: Dose-dependent effect
- inhibition [6]: Active
- inhibition [7]: inactive
- inhibition [10]: Active
Compound: CC(=O)NCCCO[C@@H](CN)c1cc(Br)c(OS(=O)(=O)O)c(Br)c1 [IANTHELLAMIDE A]
- Activity (Rattus norvegicus [1]): Active
- Activity (Rattus norvegicus [2]): 1.72 pg/µL
- Activity (Rattus norvegicus [3]): Active
- Activity (Rattus norvegicus [8]): Active
- fold change (FC) (Rattus norvegicus [9]): 20
